# Reference: US20240216370A1, “TREATMENT OF CORNEAL VASCULARISATION” (VESTLANDETS INNOVASJONSSELSKAP AS, priority 2020, published 2024)
# Entries after “also recorded” stand apart in the source; their conditions may differ.
# Tests used:
# [1] = molecular target: T1, PDGFRβ (N666Y) (Homo sapiens, UniProt P09619, N666Y); assay: ELISA analysis of phosphorylated PDGFRβ in OPDKD patient fibroblasts; assay type: cell-based
# T1 construct: Fibroblasts from affected individuals and healthy controls were obtained; endogenous in cells; host or cells: fibroblasts from OPDKD patients
# T1 sequence (P09619 33-1106 N666Y): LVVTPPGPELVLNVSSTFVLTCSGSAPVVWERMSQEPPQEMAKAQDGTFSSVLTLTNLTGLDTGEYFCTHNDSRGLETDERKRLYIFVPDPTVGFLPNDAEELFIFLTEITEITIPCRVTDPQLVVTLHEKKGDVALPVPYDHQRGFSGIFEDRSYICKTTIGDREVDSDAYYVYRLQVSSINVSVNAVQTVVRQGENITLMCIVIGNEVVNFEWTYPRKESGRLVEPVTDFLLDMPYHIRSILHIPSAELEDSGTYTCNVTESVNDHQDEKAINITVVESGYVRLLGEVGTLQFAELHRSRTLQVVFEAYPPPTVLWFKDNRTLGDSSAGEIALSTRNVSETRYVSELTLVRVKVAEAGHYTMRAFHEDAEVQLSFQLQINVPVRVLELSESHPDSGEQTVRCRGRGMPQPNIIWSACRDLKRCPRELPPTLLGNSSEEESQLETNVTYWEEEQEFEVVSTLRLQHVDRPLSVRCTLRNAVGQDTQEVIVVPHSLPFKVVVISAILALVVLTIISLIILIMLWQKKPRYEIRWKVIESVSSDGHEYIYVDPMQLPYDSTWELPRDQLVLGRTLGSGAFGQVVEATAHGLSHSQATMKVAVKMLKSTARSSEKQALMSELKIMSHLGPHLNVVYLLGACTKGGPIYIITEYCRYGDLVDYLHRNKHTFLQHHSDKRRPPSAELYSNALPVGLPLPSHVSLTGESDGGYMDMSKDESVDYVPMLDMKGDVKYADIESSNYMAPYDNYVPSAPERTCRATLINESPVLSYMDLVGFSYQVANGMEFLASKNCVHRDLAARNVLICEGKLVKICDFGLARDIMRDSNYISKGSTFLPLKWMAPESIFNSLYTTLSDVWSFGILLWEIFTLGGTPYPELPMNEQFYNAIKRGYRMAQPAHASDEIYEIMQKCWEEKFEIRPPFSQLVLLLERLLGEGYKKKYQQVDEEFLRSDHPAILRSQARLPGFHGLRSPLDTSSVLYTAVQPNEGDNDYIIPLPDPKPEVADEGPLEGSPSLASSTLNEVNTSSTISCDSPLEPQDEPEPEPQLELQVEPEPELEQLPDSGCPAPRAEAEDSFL
# Method: Fibroblasts from affected individuals and healthy controls were obtained. Transgenic HeLa cells were transduced with a murine retroviral vector containing the PDGFRβ (NM_002609.3) c.wt, c. 1996A>T (OPDKD) and c.1997A>G (a different activating mutation associated with severe Penttinen syndrome) variants.
# In OPDKD, the affected parts of the body (corneas and skin, particular fingers and toes) are all exposed to variable temperatures. ^8 At a typical room temperature (20-22° C.) corneal temperatures lie around 32-34° and fall to around 30° C. as air temperatures reaches 0° C. ^9 We studied the effect of this physiological temperature difference on PDGFRβ auto-phosphorylation and signaling in OPDKD. Cells were either kept at 37° ° C. or incubated overnight at 32° C. […] For ELISA analysis of phosphorylated PDGFRβ, a DuoSet® IC Phospho-PDGFRβ kit (R&D systems) was used. Cell lysates were also subjected to immunoblot analysis with primary antibodies against downstream signaling partners: phospho-Ser473-AKT, phospho-Thr308-AKT, phospho-Tyr70-STAT1, STAT1, phospho-Tyr783-PLCγ1, PLCγ1, phospho-Thr202/Tyr204-MAPK3/ERK1 and MAPK3/ERK1 (all from Cell Signaling Technology). […]
# [2] = test system: OPDKD patient; assay: Oral (systemic) imatinib treatment of an OPDKD patient, effect in the eye; assay type: in vivo, human; conditions: systemic imatinib for almost one year, 6 months at maximal recommended dose of 800 mg
# [3] = test system: AKT; assay: Immunoblot of downstream signaling partner AKT (phospho-Ser473, phospho-Thr308) in patient fibroblasts; assay type: cell-based, human; conditions: 0.1 μM imatinib
# Method: Cells were either kept at 37° ° C. or incubated overnight at 32° C. Cells were then left untreated or treated with 0.1 μM imatinib (STI571, Selleckchem) for 6 hours. For ELISA analysis of phosphorylated PDGFRβ, a DuoSet® IC Phospho-PDGFRβ kit (R&D systems) was used. Cell lysates were also subjected to immunoblot analysis with primary antibodies against downstream signaling partners: phospho-Ser473-AKT, phospho-Thr308-AKT, phospho-[MUT]-STAT1, STAT1, phospho-[MUT]-PLCγ1, PLCγ1, phospho-Thr202/Tyr204-MAPK3/ERK1 and MAPK3/ERK1 (all from Cell Signaling Technology).
smiles,measurement,setting,value
Cc1ccc(NC(=O)c2ccc(CN3CCN(C)CC3)cc2)cc1Nc1nccc(-c2cccnc2)n1 [imatinib],sensitivity of OPDKD fibroblasts compared with Penttinen fibroblasts,[1]; OPDKD (N666Y) vs Penttinen (N666S) fibroblasts,less sensitive
same,effect on levels of P-PDGFRβ and downstream proteins,"[1]; OPDKD fibroblasts, imatinib, 6 hours","clear, dose dependent effect"
same,levels of phosphorylated PDGFRβ,"[1]; patient fibroblasts, high doses of imatinib (1 μM)",normalization
same,effect of the drug on the eye of an OPDKD patient,[2],no effect; also recorded: without effect
same,phosphorylation of Ser473 and Thr308 AKT,[3],Normalization
